Results taken from patent publication US20180289655A1, “Methods and Compositions for the Intravenous Administration of Fumarates for the Treatment of Neurological Diseases” (Biogen MA Inc., priority 2015, published 2018).
Values joined by “and” are separate entries in the source; they are usually repeats but may differ in a detail not shown here. Identical values can stand only once. “Also recorded” adds a separate entry of the source. Counter-ions that a name gives are not always drawn.

Columns and labels:
[1] = (^14C)DMF distribution viewed in sagittal section (QWBA); format: in vivo, mice; details: 10 and 60 minutes
blood cell populations = assay: Complete blood count (CBC) with differential after IV dosing; format: in vivo, C57BL/6 mice; details: Study 2, single IV dose DMF 30 mg/kg or MMF 27.08 mg/kg
Protocol: Whole blood samples (250 μL) were collected in EDTA tubes at indicated time points after dosing, and were maintained at 4° C. until analysis for CBC with differential at Charles River Laboratories (analyzed within 24-36 hours from time of collection).
Statistical analyses on blood cell fractions were not completed due to the overall variability and low number of replicates for the samples in this pilot study.
(§1) A CBC with differential panel was performed at 10 minutes post-last dose via facial vein bleeding, and at 2 hours after the last dose, pharmacodynamic Nrf2 transcriptional responses were analyzed in tissues from the same animals. Histopathology was also performed on regions of the tail in a pilot toxicology study.

Akr1b8 = assay: qRT-PCR transcript fold-change in tissues after DMF or MMF dosing; format: in vivo, C57BL/6 mice; details: MMF IV 30 mpk, Study 2
Protocol: (§2) For RNA preparation, frozen tissues were placed in 2 mL RNAse-free 96-well blocks with 1.5 mL QIAzol Lysis Reagent (QIAgen) and a 3.2 mm stainless steel bead (BioSpec Products, Bartlesville, Okla.). Tissues were disrupted for four cycles of 45 seconds in a Mini-Beadbeater (Biospec Products). RNA was extracted with chloroform and the aqueous phase was mixed with an equal volume of 70% ethanol. Extracted RNA was applied to RNeasy 96 plates and purified by the spin method according to the manufacturer's protocol (RNeasy 96 Universal Tissue Protocol, QIAgen, Hilden Germany).
(§3) Samples were reverse-transcribed into cDNA according to the manufacturer protocols using the High Capacity cDNA Reverse Transcription Kit (Life Technologies, Carlsbad, Calif.) and analyzed by qRT-PCR. Mouse target gene primers and 6-FAM™ dye-labeled TaqMan® MGB™ probes (Life Technologies) were used. Reactions containing 100 ng of cDNA, 900 nM of each primer, and 250 nM TaqMan probes were cycled on a QuantStudio 12 k-flex system (Life Technologies) once for 10 minutes at 95° C., followed by 40 cycles of 95° C. for 10 seconds and 60° C. for 1 minute. All samples were measured in triplicate with Gapdh as a normalizing gene. Taqman primer/probe sets from Life Technologies included: Akr1b8 (Mm00484314_m1); Gapdh (Mm03302249_g1); Gclc (Mm00802655_m1); Hmox1 (Mm00516005_m1); Nqo1 (Mm01253561_m1); and Osgin1 (Mm00660947_m1). Comparative CT method was used to calculate fold changes and samples were normalized relative to time-matched vehicle control.
(§4) At the 10-minute time point, 4 animals from each group were sacrificed, with plasma and tissues (brain, jejunum and kidney) collected to determine MMF exposure. Two hours after dosing, the remaining 4 animals were sacrificed, and plasma and tissues were collected. Tissue samples from the 2-hour time point were divided, with half of each sample used for MMF exposure analysis, and half for RNA extraction and qRT-PCR to evaluate the expression of Nrf2 target genes.
(§5) Ten minutes after dosing, 4 animals from each group were sacrificed, and plasma and tissues (brain, kidney, jejunum and spleen) were collected to quantify MMF exposure levels, as well as whole blood to perform CBC. Two hours post-dose, another 4 animals from each group were sacrificed, and plasma, whole blood, and tissues were collected. Tissue samples from the 2-hour time point were split, with half of each sample used for MMF exposure analysis, and half for RNA extraction/qRT-PCR to evaluate the expression of Nrf2 target genes. Six hours after dosing, the last 4 animals from each group were sacrificed, and whole blood and tissues were collected.
(§6) Table 7 is a summary table of fold changes, relative to time-matched vehicle controls, for indicated genes in indicated tissues. Values indicate the mean fold-change±the standard deviation (n=4). Changes that were significant from vehicle are indicated in bold (one way ANOVA with Tukey's multiple comparison test).
as §1

Gclc = assay: as above; format: in vivo, C57BL/6 mice; details: MMF IV 30 mpk, Study 2
Protocol: as §2, §3, §4, §5, §6, §1

Hmox1 = assay: as above; format: in vivo, C57BL/6 mice; details: MMF IV 30 mpk, Study 2
Protocol: as §2, §3, §4, §5, §6, §1

[2] = MMF exposure in plasma and tissues after DMF PO/IV or MMF IV (LC-MS/MS); format: in vivo, C57BL/6 mice
Protocol: Aliquots (25 μL) of either plasma or tissue homogenate samples were extracted by protein precipitation with acetonitrile containing 4C13-MMF as the internal standard. For tissue samples, aliquots of homogenization solution (plasma with 12.5 mg/mL of NaF) were added to the tissue samples. The tissue samples were homogenized at 6.5 m/s for 60 seconds on a Fast Prep Tissue Homogenizer prior to protein precipitation. Concentrations of MMF in plasma, brain, jejunum and kidney samples were determined using qualified LC-MS/MS assays in the respective matrices. Data collections and integrations were accomplished using an API 5500 triple quadrupole mass spectrometer with a turbo ion spray interface (AB Sciex, Foster City, Calif.), and Analyst software (version 1.6.1). The peak area ratios of MMF relative to its internal standard were used to construct a standard curve using a quadratic regression with a 1/x^2 weighting. The lower limits of quantitation (LLOQ) were 1 ng/mL for the three tissue assays and 10 ng/mL for the plasma assay, respectively. The performances of the assays were monitored by the precision and accuracy of the standards and quality control samples.
MMF exposure levels were evaluated 10 minutes and 2 hours after dosing, while pharmacodynamic transcriptional responses were analyzed at 2 hours post-dose.
as §4
MMF exposure levels were evaluated 10 minutes and 2 hours after dosing, while transcriptional pharmacodynamic responses were analyzed at 2 and 6 hours post-dose. A complete blood count (CBC) with differential panel was performed at 10 minutes, 2 hours, and 6 hours post-dose.
as §5

Osgin1 = assay: qRT-PCR transcript fold-change in tissues after DMF or MMF dosing; format: in vivo, C57BL/6 mice; details: MMF IV 30 mpk, Study 2; for Osgin1 fold change vs vehicle, jejunum / Osgin1 fold change vs vehicle, kidney: 30 mg/kg
Protocol: as §2
as §3, with “control. […]” for “control.”
as §5
as §6, with “test). […]” for “test).”

Nqo1 = assay: as above; format: in vivo, C57BL/6 mice; details: MMF IV 30 mpk, Study 2; for Nqo1 fold change vs vehicle, jejunum / Nqo1 fold change vs vehicle, kidney: 30 mg/kg
Protocol: as §2
as §3, with “control. […]” for “control.”
as §5
as §6, with “test). […]” for “test).”

[3] = PET/MR imaging of (^11C)DMF tissue distribution after oral or intravenous administration; format: in vivo, CD1 mice
Protocol: To determine the localization and retention of DMF administered by different routes in vivo, mice were administered isotopically labeled DMF either orally or through tail vein injections. […] Acquired images from PET experiments were analyzed using inviCRO software. […] All animals were anaesthetized during image acquisition. […] The imaging data from the three groups of treated animals were quantified according to tissue type using inviCRO image analysis software. Regions of Interest (ROIs) for the brain, heart, liver, kidneys, scapular muscle, and whole body were defined by fitting ellipsoids of fixed volume to the regions. The scapular muscle ROI was hand-drawn and is not representative of all mouse muscle, but is composed of only a small region of its respective ROI.

COC(=O)/[14CH]=[14CH]/C(=O)OC [(^14C)DMF, [2,3-^14C] DMF]
(^14C) signal in sagittal section ([1]; IV 0.5 mg/kg): displayed signal in the kidneys and brain
(^14C) signal in sagittal section ([1]; PO 0.5 mg/kg): had less signal in the brain

COC(=O)/C=C/C(=O)O [MMF, monomethyl fumarate]
Reduction in white blood cell counts (neutrophils, lymphocytes, monocytes, eosinophils, basophils) (blood cell populations; 2-hour time point): did not specifically coincide with DMF or MMF treatment
Effect on red blood cells, hemoglobin, hematocrit, mean corpuscular volume, platelets (blood cell populations; 10 minutes, 2 and 6 hours): no effect on red blood cells, hemoglobin, hematocrit, mean corpuscular volume, or platelets
Akr1b8 fold change vs vehicle, brain (Akr1b8; 2 hr): 1.0 ± 0.2 fold
Akr1b8 fold change vs vehicle, kidney (Akr1b8; 2 hr): 1.2 ± 0.1 fold
Akr1b8 fold change vs vehicle, jejunum (Akr1b8; 2 hr, 30 mg/kg): 2.4±0.7 fold
Akr1b8 fold change vs vehicle, brain (Akr1b8; 6 hr): 1.0 ± 0.1 fold
Akr1b8 fold change vs vehicle, jejunum (Akr1b8; 6 hr): 2.9 ± 1.2 fold
Akr1b8 fold change vs vehicle, kidney (Akr1b8; 6 hr, 30 mg/kg): 1.5±0.1 fold
Gclc fold change vs vehicle, brain (Gclc; 2 hr): 1.0 ± 0.0 fold
Gclc fold change vs vehicle, jejunum (Gclc; 2 hr): 1.2 ± 0.3 fold
Gclc fold change vs vehicle, kidney (Gclc; 2 hr, 30 mg/kg): 1.9±0.7 fold
Gclc fold change vs vehicle, brain (Gclc; 6 hr): 1.0 ± 0.1 fold
Gclc fold change vs vehicle, jejunum (Gclc; 6 hr, 30 mg/kg): 1.5±0.1 fold
Gclc fold change vs vehicle, kidney (Gclc; 6 hr, 30 mg/kg): 2.3±0.6 fold
Hmox1 fold change vs vehicle, brain (Hmox1; 2 hr): 1.0 ± 0.1 fold
Hmox1 fold change vs vehicle, jejunum (Hmox1; 2 hr): 0.9 ± 0.1 fold
Hmox1 fold change vs vehicle, kidney (Hmox1; 2 hr): 1.6 ± 0.3 fold
Hmox1 fold change vs vehicle, brain (Hmox1; 6 hr): 1.0 ± 0.0 fold
Hmox1 fold change vs vehicle, jejunum (Hmox1; 6 hr): 1.1 ± 0.1 fold
Hmox1 fold change vs vehicle, kidney (Hmox1; 6 hr): 3.3 ± 0.8 fold
Kp at 10 min ([2]; C57BL/6, mouse, brain, Study 2, MMF IV 27.08 mg/kg, 10 minutes, read-out: Brain to plasma MMF ratio (tissue [MMF]/plasma [MMF]*100)): 7.2 ± 3
concentration at 10 min ([2]; C57BL/6, mouse, plasma, Study 2, MMF IV 27.08 mg/kg, 10 minutes, n=4, read-out: MMF level in plasma): 13000 ng/mL and 100 µM
Difference in brain MMF levels, animals receiving MMF compared to DMF via IV dosing ([2]; Study 2, 10 minutes, not significant): 31%
MMF level in plasma or any tissues ([2]; Study 2, 2 hours, DMF 30 mg/kg or MMF 27.08 mg/kg IV): no detectable MMF in plasma or in any tissues
MMF levels in kidney, jejunum and spleen, DMF versus MMF ([2]; Study 2, IV, 10 minutes): no significant differences were noted in MMF levels
Tissue penetration ratios in kidney, jejunum or spleen, DMF versus MMF ([2]; Study 2, IV, 10 minutes): no significant differences in tissue penetration ratios
Osgin1 fold change vs vehicle, brain (Osgin1; 2 hr): 1.9 ± 0.3 fold
Osgin1 fold change vs vehicle, jejunum (Osgin1; 2 hr): 1.6±0.1 fold
Osgin1 fold change vs vehicle, kidney (Osgin1; 2 hr): 2.4±0.8 fold
Osgin1 fold change vs vehicle, brain (Osgin1; 6 hr): 1.1 ± 0.1 fold
Osgin1 fold change vs vehicle, jejunum (Osgin1; 6 hr): 1.2±0.1 fold
Osgin1 fold change vs vehicle, kidney (Osgin1; 6 hr): 1.4±0.0 fold
Nqo1 fold change vs vehicle, brain (Nqo1; 2 hr): 1.1 ± 0.1 fold
Nqo1 fold change vs vehicle, jejunum (Nqo1; 2 hr): 1.5±0.2 fold
Nqo1 fold change vs vehicle, kidney (Nqo1; 2 hr): 1.6±0.4 fold
Nqo1 fold change vs vehicle, brain (Nqo1; 6 hr): 1.2 ± 0.1 fold
Nqo1 fold change vs vehicle, jejunum (Nqo1; 6 hr): 1.7±0.1 fold
Nqo1 fold change vs vehicle, kidney (Nqo1; 6 hr): 2.3±0.3 fold

(^11C) dimethyl fumarate [(^11C)DMF]
PET signal distribution in tissues ([3]; IV 0.5 mg/kg, imaged up to 90 minutes, 0.5 mg/kg): positive signal throughout various tissues of the body including the brain and heart; also recorded: signal was higher in most tissues; also recorded: localized in numerous tissues, including the brain, as early as 30 seconds after administration
PET signal in brain regions ([3]; IV 0.5 mg/kg, 0.5 mg/kg): high levels of signal in all regions of the brain throughout the observation period; also recorded: all emitted a strong signal as compared to olfactory regions
PET signal in brain regions ([3]; PO 0.5 mg/kg or 200 mg/kg): almost no signal was detected in any region; also recorded: significantly lower levels of signal throughout the brain
